For 3 molecules, Km results are on record in publication PMC10870048, “2,4‐Dihydroxybenzoic Acid, a Novel SA Derivative, Controls Plant Immunity via UGT95B17‐Mediated Glucosylation: A Case Study in Camellia Sinensis” (Advanced Science, 2023).

What is called Km is the concentration of substrate that gives half-maximal velocity.

This assay deals with T1, UGT95B17.
T1 construct: full-length ORF in pGEX-4T-1 (N-terminal GST tag of vector)
The assay can be described thus: UDP-Glo glycosyltransferase assay. The format is biochemical, Camellia sinensis. As to conditions: UDP-glucose co-substrate, pH 7.5, 25 °C, 40 min; read-out: apparent KM.
For `O=C(O)c1cccc(O)c1O` [2,3-DHBA], the Km turned out to be 3310 ± 580 nM.
Next, `O=C(O)c1ccc(O)cc1O` [2,4-DHBA]: 810 ± 260 nM.
In the case of `O=C(O)c1cc(O)ccc1O` [2,5-DHBA], the Km was 310 ± 110 nM.
